ChEMBL document CHEMBL1134710, “The C4 hydroxyl group of phorbol esters is not necessary for protein kinase C binding” (Bioorg Med Chem Lett, 2001)

How the values were obtained:
HL-60 [1] = assay: (§1) Compound was tested in vitro for percent EBV0EA-inducing activity in […] cells at concentration 10e-6 M; type: functional, Homo sapiens
[2] = biological target: Protein kinase C theta type (Homo sapiens, UniProt Q04759); assay: Displacement of 3[H]PDBu from Protein kinase C theta C1b domain
HL-60 [3] = assay: Compound was tested in vitro for its ability to induce superoxide generation in HL-60 cells at concentration 10e-6 M; type: functional, Homo sapiens
[4] = biological target: T1, Protein kinase C epsilon type (Homo sapiens, UniProt Q02156); assay: Displacement of 3[H]PDBu from Protein kinase C epsilon C1b domain
T1 sequence (Q02156 whole entry): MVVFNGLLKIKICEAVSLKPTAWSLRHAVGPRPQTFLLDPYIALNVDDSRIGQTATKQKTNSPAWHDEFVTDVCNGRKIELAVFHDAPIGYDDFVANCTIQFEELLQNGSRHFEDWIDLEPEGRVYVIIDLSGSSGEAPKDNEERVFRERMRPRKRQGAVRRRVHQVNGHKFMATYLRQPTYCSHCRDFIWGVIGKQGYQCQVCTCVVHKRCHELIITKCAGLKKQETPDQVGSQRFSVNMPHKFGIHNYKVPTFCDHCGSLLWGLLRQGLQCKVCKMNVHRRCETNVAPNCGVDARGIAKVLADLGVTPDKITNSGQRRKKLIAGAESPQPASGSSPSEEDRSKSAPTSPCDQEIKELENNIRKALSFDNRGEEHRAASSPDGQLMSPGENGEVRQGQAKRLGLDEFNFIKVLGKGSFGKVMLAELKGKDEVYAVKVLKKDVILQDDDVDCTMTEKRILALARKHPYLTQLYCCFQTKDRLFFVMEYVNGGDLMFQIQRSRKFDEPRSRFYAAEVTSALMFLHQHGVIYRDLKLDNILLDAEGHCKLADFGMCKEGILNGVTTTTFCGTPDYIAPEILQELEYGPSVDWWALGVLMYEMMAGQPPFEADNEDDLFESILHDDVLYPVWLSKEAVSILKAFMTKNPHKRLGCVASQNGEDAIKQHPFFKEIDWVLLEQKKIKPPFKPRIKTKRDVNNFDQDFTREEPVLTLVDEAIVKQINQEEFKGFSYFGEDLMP

HL-60 [5] = assay: Compound was tested in vitro for percent EBV0EA-inducing activity in […] cells at concentration 10e-7 M; type: functional, Homo sapiens
[6] = biological target: T2, Protein kinase C eta type (Homo sapiens, UniProt P24723); assay: Displacement of 3[H]PDBu from Protein kinase C eta C1b domain
HL-60 [7] = assay: Compound was tested in vitro for percent EBV0EA-inducing activity in […] cells at concentration 10e-9 M; type: functional, Homo sapiens
HL-60 [8] = assay: Compound was tested in vitro for its ability to induce superoxide generation in HL-60 cells at concentration 10e-9 M; type: functional, Homo sapiens
HL-60 [9] = assay: Compound was tested in vitro for percent EBV0EA-inducing activity in […] cells at concentration 10e-8 M; type: functional, Homo sapiens
[10] = biological target: T3, Protein kinase C gamma type (Homo sapiens, UniProt P05129); assay: Displacement of 3[H]PDBu from Protein kinase C gamma C1a domain
[11] = biological target: T4, Protein kinase C alpha type (Homo sapiens, UniProt P17252); assay: Displacement of 3[H]PDBu from Protein kinase C alpha C1a domain
[12] = biological target: T5, Protein kinase C beta type (Homo sapiens, UniProt P05771); assay: Displacement of 3[H]PDBu from Protein kinase C beta C1a domain
HL-60 [13] = assay: Compound was tested in vitro for its ability to induce superoxide generation in HL-60 cells at concentration 10e-8 M; type: functional, Homo sapiens
[14] = biological target: T5, Protein kinase C beta type; assay: Displacement of 3[H]PDBu from Protein kinase C beta C1b domain
[15] = biological target: T2, Protein kinase C eta type; assay: Displacement of 3[H]PDBu from Protein kinase C eta C1a domain
HL-60 [16] = assay: Compound was tested in vitro for its ability to induce superoxide generation in HL-60 cells at concentration 10e-7 M; type: functional, Homo sapiens
[17] = biological target: T1, Protein kinase C epsilon type; assay: Displacement of 3[H]PDBu from Protein kinase C epsilon C1a domain
[18] = biological target: T4, Protein kinase C alpha type; assay: Displacement of 3[H]PDBu from Protein kinase C alpha C1b domain
[19] = biological target: T6, Protein kinase C delta type (Homo sapiens, UniProt Q05655); assay: Displacement of 3[H]PDBu from Protein kinase C delta C1b domain
[20] = biological target: T6, Protein kinase C delta type; assay: Displacement of 3[H]PDBu from Protein kinase C delta C1a domain
[21] = biological target: T3, Protein kinase C gamma type; assay: Displacement of 3[H]PDBu from Protein kinase C gamma C1b domain
HL-60 [22] = assay: Compound was tested in vitro for percent EBV0EA-inducing activity in […] cells at concentration 10e-5 M; type: functional, cell-based, Homo sapiens
HL-60 [23] = assay: as §1; type: functional, cell-based, Homo sapiens

T5 sequence (P05771 whole entry, the tested form may be a part): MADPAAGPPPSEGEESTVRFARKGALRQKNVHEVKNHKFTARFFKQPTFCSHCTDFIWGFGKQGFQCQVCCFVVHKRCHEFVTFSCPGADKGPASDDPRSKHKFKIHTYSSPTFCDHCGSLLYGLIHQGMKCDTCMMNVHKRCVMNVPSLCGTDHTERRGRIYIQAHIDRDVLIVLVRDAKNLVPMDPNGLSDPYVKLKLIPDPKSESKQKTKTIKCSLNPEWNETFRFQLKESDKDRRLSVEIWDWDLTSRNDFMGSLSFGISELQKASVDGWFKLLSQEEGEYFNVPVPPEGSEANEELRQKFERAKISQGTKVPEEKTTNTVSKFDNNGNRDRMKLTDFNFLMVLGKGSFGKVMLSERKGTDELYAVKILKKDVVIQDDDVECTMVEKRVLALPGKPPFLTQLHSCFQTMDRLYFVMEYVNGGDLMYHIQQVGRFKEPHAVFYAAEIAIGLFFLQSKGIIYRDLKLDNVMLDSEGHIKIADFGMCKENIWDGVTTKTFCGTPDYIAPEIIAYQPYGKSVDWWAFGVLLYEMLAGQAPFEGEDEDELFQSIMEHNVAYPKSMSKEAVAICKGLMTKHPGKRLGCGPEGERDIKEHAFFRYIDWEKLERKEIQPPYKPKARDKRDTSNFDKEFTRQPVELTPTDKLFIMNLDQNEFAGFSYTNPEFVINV
T2 sequence (P24723 whole entry, the tested form may be a part): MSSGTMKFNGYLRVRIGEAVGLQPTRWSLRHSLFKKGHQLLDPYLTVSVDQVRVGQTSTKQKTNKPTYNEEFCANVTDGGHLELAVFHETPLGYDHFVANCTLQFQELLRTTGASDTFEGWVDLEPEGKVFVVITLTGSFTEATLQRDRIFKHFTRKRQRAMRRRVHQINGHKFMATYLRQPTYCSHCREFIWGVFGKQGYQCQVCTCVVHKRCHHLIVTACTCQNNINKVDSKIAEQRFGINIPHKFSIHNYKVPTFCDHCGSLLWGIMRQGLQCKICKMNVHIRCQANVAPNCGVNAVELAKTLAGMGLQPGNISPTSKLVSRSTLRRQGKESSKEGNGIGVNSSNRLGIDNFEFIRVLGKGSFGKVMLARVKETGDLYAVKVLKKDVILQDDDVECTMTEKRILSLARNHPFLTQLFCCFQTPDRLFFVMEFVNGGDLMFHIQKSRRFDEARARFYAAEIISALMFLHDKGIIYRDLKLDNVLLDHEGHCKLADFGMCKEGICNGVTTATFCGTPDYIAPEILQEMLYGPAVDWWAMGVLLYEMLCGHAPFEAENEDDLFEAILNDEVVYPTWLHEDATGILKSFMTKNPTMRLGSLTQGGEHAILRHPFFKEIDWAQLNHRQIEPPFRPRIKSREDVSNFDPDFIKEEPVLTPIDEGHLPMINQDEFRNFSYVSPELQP
T6 sequence (Q05655 whole entry, the tested form may be a part): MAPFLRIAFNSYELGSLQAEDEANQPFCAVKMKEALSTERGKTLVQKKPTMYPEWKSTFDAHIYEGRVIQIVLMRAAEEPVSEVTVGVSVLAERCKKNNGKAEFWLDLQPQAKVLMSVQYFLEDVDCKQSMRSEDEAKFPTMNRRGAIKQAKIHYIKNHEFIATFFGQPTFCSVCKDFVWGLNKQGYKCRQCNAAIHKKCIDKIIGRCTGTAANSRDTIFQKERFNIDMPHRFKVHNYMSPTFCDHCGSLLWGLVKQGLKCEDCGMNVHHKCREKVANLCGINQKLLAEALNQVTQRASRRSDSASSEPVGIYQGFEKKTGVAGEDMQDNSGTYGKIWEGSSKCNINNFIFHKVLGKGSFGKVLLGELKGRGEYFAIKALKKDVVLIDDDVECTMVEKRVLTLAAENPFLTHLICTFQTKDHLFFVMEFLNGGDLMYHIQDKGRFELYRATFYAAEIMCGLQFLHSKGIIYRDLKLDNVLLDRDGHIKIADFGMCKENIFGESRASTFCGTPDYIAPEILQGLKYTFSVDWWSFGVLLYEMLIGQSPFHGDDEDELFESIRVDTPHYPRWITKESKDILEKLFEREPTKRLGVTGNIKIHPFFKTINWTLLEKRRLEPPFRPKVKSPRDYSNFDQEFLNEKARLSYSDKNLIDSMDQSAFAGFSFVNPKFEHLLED
Sequence of Protein kinase C theta type (Q04759 whole entry, the tested form may be a part): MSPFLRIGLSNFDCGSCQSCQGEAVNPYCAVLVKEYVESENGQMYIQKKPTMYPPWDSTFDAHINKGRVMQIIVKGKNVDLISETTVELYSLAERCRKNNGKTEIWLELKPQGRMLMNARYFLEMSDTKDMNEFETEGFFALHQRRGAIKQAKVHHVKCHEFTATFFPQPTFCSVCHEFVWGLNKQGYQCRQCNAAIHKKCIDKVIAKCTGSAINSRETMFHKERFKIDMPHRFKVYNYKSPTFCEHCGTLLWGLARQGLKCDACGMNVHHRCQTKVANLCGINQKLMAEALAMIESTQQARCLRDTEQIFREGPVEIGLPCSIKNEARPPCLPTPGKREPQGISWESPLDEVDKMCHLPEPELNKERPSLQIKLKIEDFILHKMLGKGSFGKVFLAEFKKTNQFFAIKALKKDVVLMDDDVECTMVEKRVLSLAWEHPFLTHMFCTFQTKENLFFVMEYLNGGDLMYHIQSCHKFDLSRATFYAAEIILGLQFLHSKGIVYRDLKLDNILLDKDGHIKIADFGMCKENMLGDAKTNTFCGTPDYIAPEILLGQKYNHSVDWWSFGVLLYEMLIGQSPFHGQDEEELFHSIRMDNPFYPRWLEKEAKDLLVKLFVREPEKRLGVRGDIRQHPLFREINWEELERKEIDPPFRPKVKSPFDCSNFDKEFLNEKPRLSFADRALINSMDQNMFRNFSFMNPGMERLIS

SMILES | Activity (HL-60 [1]) [%] | Activity (HL-60 [3]) | Activity (HL-60 [5]) [%] | Activity (HL-60 [7]) [%] | Activity (HL-60 [8]) | Activity (HL-60 [9]) [%] | Activity (HL-60 [13]) | Activity (HL-60 [16]) | other results
CCCC(=O)O[C@@H]1[C@@H](C)[C@]2(O)[C@@H]3C=C(C)C(=O)[C@H]3CC(CO)=C[C@H]2[C@@H]2C(C)(C)[C@]12OC(=O)CCC | 25.6 | 3.14 nM min-1 (10e-6*cells)-1 | 31.1 | 1.2 | 0.11 nM min-1 (10e-6*cells)-1 | 7 | 0.08 nM min-1 (10e-6*cells)-1 | 3.16 nM min-1 (10e-6*cells)-1 | Ki [2]: 0.73 nM; Ki [4]: 0.58 nM; Ki [6]: 0.35 nM; Ki [10]: 5.23 nM; Ki [11]: 4.05 nM; Ki [12]: 2.78 nM; Ki [14]: 2.23 nM; Ki [15]: 14.9 nM; Ki [17]: 4.49 nM; Ki [18]: 13.9 nM; Ki [19]: 0.55 nM; Ki [20]: 70.2 nM; Ki [21]: 1.84 nM
CCCC(=O)O[C@@H]1[C@@H](C)[C@]2(O)[C@@H]3C=C(C)C(=O)[C@@H]3CC(CO)=C[C@H]2[C@@H]2C(C)(C)[C@]12OC(=O)CCC |  | 0.05 nM min-1 (10e-6*cells)-1 |  |  |  |  |  |  | Activity (HL-60 [22]): 17.9%; Activity (HL-60 [23]): 2.7%
CCCC(=O)O[C@@H]1[C@@H](C)[C@@]2(O)[C@@H](C=C(CO)C[C@]3(O)C(=O)C(C)=C[C@@H]23)[C@@H]2C(C)(C)[C@]12OC(=O)CCC | 29.9 | 3.32 nM min-1 (10e-6*cells)-1 | 33.1 | 3.6 | 0 nM min-1 (10e-6*cells)-1 | 10.8 | 0.11 nM min-1 (10e-6*cells)-1 | 3.11 nM min-1 (10e-6*cells)-1 | 
